pKi: −log10 of the molar value.
Assays:
C3H 10T1/2 = assay: Inhibition of arachidonic acid metabolite release in C3H10T1/2 cells; type: functional, Mus musculus
[1] = target: Epidermal growth factor receptor (Mus musculus) (UniProt Q01279); assay: Inhibition of epidermal growth factor binding in C3H10T1/2 cells; type: functional, cell-based; conditions: C3H 10T1/2
[2] = Displacement of [3H]PDBu from Protein kinase C in vitro; set-up: species or system Mus musculus

Epidermal growth factor receptor (Mus musculus), sequence (Q01279 whole entry): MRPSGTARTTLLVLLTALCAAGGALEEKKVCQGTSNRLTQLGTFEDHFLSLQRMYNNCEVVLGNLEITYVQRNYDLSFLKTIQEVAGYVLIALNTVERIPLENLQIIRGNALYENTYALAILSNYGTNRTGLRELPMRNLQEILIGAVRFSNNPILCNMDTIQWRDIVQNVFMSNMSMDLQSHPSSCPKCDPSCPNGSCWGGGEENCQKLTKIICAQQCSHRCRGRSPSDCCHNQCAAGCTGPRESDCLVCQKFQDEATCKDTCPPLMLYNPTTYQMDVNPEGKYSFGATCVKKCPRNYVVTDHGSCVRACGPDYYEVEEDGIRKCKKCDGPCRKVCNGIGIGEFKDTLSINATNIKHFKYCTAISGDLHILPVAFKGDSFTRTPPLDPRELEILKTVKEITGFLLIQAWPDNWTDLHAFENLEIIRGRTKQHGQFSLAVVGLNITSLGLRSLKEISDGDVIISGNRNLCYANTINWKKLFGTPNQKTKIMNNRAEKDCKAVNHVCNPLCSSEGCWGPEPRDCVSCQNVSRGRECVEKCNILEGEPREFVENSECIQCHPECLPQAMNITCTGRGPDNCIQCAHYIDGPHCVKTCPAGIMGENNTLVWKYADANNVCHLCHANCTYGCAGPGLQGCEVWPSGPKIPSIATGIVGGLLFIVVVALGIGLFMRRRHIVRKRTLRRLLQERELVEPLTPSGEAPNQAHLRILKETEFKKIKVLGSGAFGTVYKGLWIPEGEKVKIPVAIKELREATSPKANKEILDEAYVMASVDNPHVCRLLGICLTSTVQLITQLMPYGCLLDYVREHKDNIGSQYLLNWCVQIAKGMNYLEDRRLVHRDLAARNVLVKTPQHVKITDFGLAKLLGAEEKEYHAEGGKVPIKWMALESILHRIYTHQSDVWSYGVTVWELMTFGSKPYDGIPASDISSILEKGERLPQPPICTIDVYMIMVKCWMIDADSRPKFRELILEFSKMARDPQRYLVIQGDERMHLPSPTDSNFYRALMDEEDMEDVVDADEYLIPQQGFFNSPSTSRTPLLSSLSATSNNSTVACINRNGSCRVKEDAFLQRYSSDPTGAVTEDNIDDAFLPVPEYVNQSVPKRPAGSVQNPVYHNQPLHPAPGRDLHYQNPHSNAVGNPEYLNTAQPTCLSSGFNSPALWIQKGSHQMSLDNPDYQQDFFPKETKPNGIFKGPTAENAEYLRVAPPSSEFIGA

For CC(=O)O[C@@]12C[C@@H](C)[C@@]3(O)[C@@H](C=C(CO)C[C@]4(O)C(=O)C(C)=C[C@@H]34)[C@@H]1C2(C)C [PROSTRATIN], which Effective concentration (C3H 10T1/2) is on record?
The Effective concentration was 1100 nM.

What about the Effective concentration [1] of the same molecule?
Its Effective concentration is 220 nM.

What about the pKi [2] of the same molecule?
Its pKi is 7.90.

Reference: ChEMBL document CHEMBL1126055, “A nonpromoting phorbol from the samoan medicinal plant Homalanthus nutans inhibits cell killing by HIV-1” (J Med Chem, 1992)
